Measured values taken from patent publication US20170112857A1, “Extended Release Aspirin” (New Haven Pharmaceuticals, Inc., priority 2015, published 2017).

Experiments:
[1] = tested on: High Sensitive C-Reactive Protein (hs-CRP); assay: High Sensitive C-Reactive Protein (hs-CRP) test; type: in vivo, human; conditions: V2 pre-dose, 81 mg IR ASA
Method: Subjects were also measured for high sensitive C-reactive protein (“hs-CRP”) levels at Visit 1, Visit 2, Visit 3 pre-dose, Visit 3 at 24 hours, Visit 6 pre-dose and Visit 6 at 24 hours.
High Sensitive C-Reactive Protein (“hs-CRP”) was measured using a Seimens Immulite 2000® Xpi analyzer (Immulite 2000 is a registered trademark of Siemens Healthcare Diagnostic, Inc.), prior to 162.5 mg ER ASA (Durlaza®) dosing at Visit 2 pre-dose, at Visit 3 pre-dose and Visit 3 at 24-hr post-dose for the 162.5 mg ER ASA (Durlaza®) dose, and at Visit 6 pre-dose and Visit 6 at 24-hr post-dose for the 325 mg ER ASA dose.

platelet aggregation [2] = assay: Multiplate platelet aggregation; type: in vivo, human; conditions: Visit 2 trough
Method: The main study consisted of a run-in phase where subjects were administered 81 mg, everyday (“QD”), of immediate release acetylsalicylic acid (“IR ASA”) for 7-28 days. […] During Visits 2 and 5 subjects were subjected to the following tests: (1) platelet aggregation measurements (a) AA induced, (b) collagen induced, and (c) Multiplate®; […] During Visits 3 and 6 subjects were subjected to the following tests: (1) platelet aggregation measurements (a) AA induced, (b) collagen induced, and (c) Multiplate®; […] For this study the trough level data are from the following timepoints: (1) for 81 mg—the data at Visit 2; […]

platelet aggregation [3] = assay: AA-, collagen- and ADP-induced light transmittance aggregometry (LTA); type: in vivo, human; conditions: Visit 2 trough
Method: High platelet reactivity has previously been implicated in incomplete inhibition during therapy with immediate release low-dose aspirin in patients with type II diabetes. The main study consisted of a run-in phase where subjects were administered 81 mg, everyday (“QD”), of immediate release acetylsalicylic acid (“IR ASA”) for 7-28 days. […] During Visits 2 and 5 subjects were subjected to the following tests: (1) platelet aggregation measurements (a) AA induced, (b) collagen induced, and (c) Multiplate®; […] During Visits 3 and 6 subjects were subjected to the following tests: (1) platelet aggregation measurements (a) AA induced, (b) collagen induced, and (c) Multiplate®; […] An increase in platelet aggregation ([…], or […] or […]) by more than 15% with either agonists (i.e., arachidonic acid or collagen) is considered a significant loss of aspirin effect over 24 hours. […] For this study the trough level data are from the following timepoints: (1) for 81 mg-the data at Visit 2; […]

[4] = tested on: serum 11-dehydro-thromboxane (TxB2) production; assay: Single dose inhibition of serum TxB2 production (enzyme immunoassay); type: in vivo, human; conditions: highest doses: ER ASA 81 mg, 162.5 mg (Durlaza), 325 mg; IR ASA 40 mg and 81 mg
Method: Healthy adults were randomized to receive single doses of extended release ASA (“ER ASA”) at a dosage of 20 mg, 40 mg, 81 mg, 162.5 mg ER ASA (Durlaza®; New Haven Pharmaceuticals, Inc., North Haven, Conn.), or 325 mg, or immediate release ASA (“IR ASA”; aspirin powder USP; Letco Medical, Decatur, Ala.) at a dosage of 5 mg, 10 mg, 20 mg, 40 mg or 81 mg. […] For pharmacodynamic assessments, serum 11-dehydro-thromboxane (“TxB2”, a stable metabolite of thromboxane A2) levels were assessed using a validated enzyme immunoassay kit in serial blood samples collected 1 hour before dosing and at 0.5, 1, 2, 4, 8, 16, and 24 hours after drug administration.

TxB2 = assay: Urinary TxB2 excretion by GC/MS, basal and bradykinin-stimulated (Example 3); type: in vivo, human; conditions: for Basal urinary TxB2 levels over placebo: 24 hours post-dosing; for Bradykinin-stimulated TxB2 levels over placebo: 4 hours post-dosing
Description: […] This protocol was repeated two additional times. […] Statistical analysis was done using Wilcoxon rank sum test for continuous variables and the Pearson test for categorical variables.

platelet aggregation [5] = conditions: 75 mg IR ASA; Würtz et al.; cited from earlier work
[6] = 81 mg IR, subjects compared with Visit 6 (sub-study)

For CC(=O)Oc1ccccc1C(=O)O [IR ASA, acetylsalicylic acid], the “hs-CRP, Maximum” value [1] was 57.4 mg/L, the “hs-CRP, Mean” value [1] was 9.62 mg/L and the “hs-CRP, Minimum” value [1] was 0.44 mg/L. The “MultiPlate (AU) AA” value (platelet aggregation [2]; 81 mg IR QD, main study) was 17 ± 14 AU, the “MultiPlate (AU) ADP” value (platelet aggregation [2]; 81 mg IR QD, main study) was 70 ± 24 AU and the “MultiPlate (AU) Collagen” value (platelet aggregation [2]; 81 mg IR QD, main study) was 36 ± 17 AU. The “MultiPlate (AU) AA” value (platelet aggregation [2]; [6]) was 24 ± 13 AU, the “MultiPlate (AU) ADP” value (platelet aggregation [2]; [6]) was 77 ± 15 AU and the “MultiPlate (AU) Collagen” value (platelet aggregation [2]; [6]) was 47 ± 18 AU. For the same compound, the “LTA (%) 2 μg/mL Collagen (Final)” value (platelet aggregation [3]; 81 mg IR QD, main study) was 54 ± 25%, the “LTA (%) 2 μg/mL Collagen (Max)” value (platelet aggregation [3]; 81 mg IR QD, main study) was 57 ± 24% and the “LTA (%) 4 μg/mL Collagen (Final)” value (platelet aggregation [3]; 81 mg IR QD, main study) was 65 ± 20%. For the same compound, the “LTA (%) 4 μg/mL Collagen (Max)” value (platelet aggregation [3]; 81 mg IR QD, main study) was 66 ± 21%, the “LTA (%) 5 μM ADP (Final)” value (platelet aggregation [3]; 81 mg IR QD, main study) was 50 ± 17% and the “LTA (%) 5 μM ADP (Max)” value (platelet aggregation [3]; 81 mg IR QD, main study) was 59 ± 14%. The “LTA (%) 1 mM AA (Max)” value (platelet aggregation [3]; 81 mg IR QD, main study) was 5 ± 12%, the “LTA (%) 2 mM AA (Final), first line so labelled (r8)” value (platelet aggregation [3]; 81 mg IR QD, main study) was 5 ± 12% and the “LTA (%) 2 mM AA (Final), second line (r10)” value (platelet aggregation [3]; 81 mg IR QD, main study) was 6 ± 13%. The “LTA (%) 2 mM AA (Max)” value (platelet aggregation [3]; 81 mg IR QD, main study) was 7 ± 14%, the “LTA (%) 2 μg/mL Collagen (Final)” value (platelet aggregation [3]; [6]) was 67 ± 12% and the “LTA (%) 2 μg/mL Collagen (Max)” value (platelet aggregation [3]; [6]) was 68 ± 11%. For the same compound, the “LTA (%) 4 μg/mL Collagen (Final)” value (platelet aggregation [3]; [6]) was 71 ± 13%, the “LTA (%) 4 μg/mL Collagen (Max)” value (platelet aggregation [3]; [6]) was 73 ± 12% and the “LTA (%) 5 μM ADP (Final)” value (platelet aggregation [3]; [6]) was 52 ± 14%. The “LTA (%) 5 μM ADP (Max)” value (platelet aggregation [3]; [6]) was 61 ± 10%, the “LTA (%) 1 mM AA (Max)” value (platelet aggregation [3]; [6]) was 4 ± 2% and the “LTA (%) 2 mM AA (Final), first line so labelled (r8)” value (platelet aggregation [3]; [6]) was 3 ± 2%. The “LTA (%) 2 mM AA (Final), second line (r10)” value (platelet aggregation [3]; [6]) was 3 ± 2%, the “LTA (%) 2 mM AA (Max)” value (platelet aggregation [3]; [6]) was 4 ± 2% and the “single dose inhibition of TxB2 production” value [4] was “maintained during a 24-hour period”. For the same compound, the “Basal urinary TxB2 levels over placebo” value (TxB2; 81 mg daily for 1 week) was “significantly reduced”, the “dose dependence of the effect on TxB2 synthesis” value (TxB2; 81 mg vs 162.5 mg) was “not seen” and the “Bradykinin-stimulated TxB2 levels over placebo” value (TxB2; 81 mg) was “significantly reduced”. For the same compound, the “Basal urinary TxB2 levels over placebo” value (TxB2; 162.5 mg daily for 1 week) was “significantly reduced”, the “Bradykinin-stimulated TxB2 levels over placebo” value (TxB2; 162.5 mg) was “significantly reduced” and the “selectivity for basal TxB2 production over prostacyclin production” value (TxB2; doses of 81 and 162.5 mg/d) was “selectively inhibit basal TxB2 production over prostacyclin production”. The “AA induced and collagen induced platelet aggregation 24 hours after administration” value (platelet aggregation [5]) was “significant increase”.
